Data published in US8173808B2, “Substituted naphthalenyl-pyrimidine compounds” (ArQule, Inc., priority 2009, dated 2012).

What was measured:
[1] = tested on: MDA-MB-231; assay: MTS assay, MDA-MB-231; assay type: cell-based; details: Homo sapiens, 72 hours, 1 Percent FBS
Procedure: (§1) Cells were maintained at 37° C., 5% CO2 in DMEM media supplemented with 1% fetal bovine serum, penicillin/streptomycin and fungizone (Invitrogen). Cells were seeded into 96-well tissue culture plates at 3000 per well and cultured at 37° C. for 18 hours. Test compounds were dissolved and diluted to 300× in DMSO then diluted 1:40 in DMEM. Cells were incubated with test compounds for 72 hours followed by incubation with tetrazolium compound (3-(4,5-dimethylthiazol-2-yl)-5-(3-carboxymethoxyphenyl)-2-(4-sulfophenyl)-2H-tetrazolium, inner salt; MTS) and the electron coupling reagent, phenazine methosulfate (PMS) for 4 hours. […] The ability of compounds to inhibit cell growth in this assay is correlated with the reduction of dehydrogenase enzyme activity found in metabolically active cells. The measurement of the absorbance of the formazan was assessed using a Victor (Perkin Elmer) microplate reader at 492 nm. The calculated IC50 value is the concentration of the test compound that causes a 50% decrease in the absorbance.

[2] = tested on: DLD-1; assay: MTS assay, DLD-1; assay type: cell-based; details: Homo sapiens, 72 hours, 1 Percent FBS
Procedure: as §1

SMILES	inhibition at 10 µM [1]	inhibition at 10 µM [2]
CCN(CC)CCCN1CCN(CC(=O)Nc2cc(-c3ccnc(NC)n3)cc3ccc(OC)cc23)CC1 [Compound 36, 2-{4-[3-(diethylamino)propyl]piperazin-1-yl}-N-{7-methoxy-3-[2-(methylamino)pyrimidin-4-yl]-1-naphthyl}acetamide]	92%	87%
CNc1nccc(-c2cc(NC(=O)CN3CCN(CCO)CC3)c3cc(OC)ccc3c2)n1 [Compound 38, 2-[4-(2-hydroxyethyl)piperazin-1-yl]-N-{7-methoxy-3-[2-(methylamino)pyrimidin-4-yl]-1-naphthyl}acetamide]	98%	98%
CNc1nccc(-c2cc(NC(=O)CN3CCN(c4ncncn4)CC3)c3cc(OC)ccc3c2)n1 [Compound 40, N-{7-methoxy-3-[2-(methylamino)pyrimidin-4-yl]-1-naphthyl}-2-[4-(1,3,5-triazin-2-yl)piperazin-1-yl]acetamide]	40%	54%
CNc1nccc(-c2cc(NC(=O)CN3CCN(CC4CCN(C)CC4)CC3)c3cc(OC)ccc3c2)n1 [Compound 41, N-{7-methoxy-3-[2-(methylamino)pyrimidin-4-yl]-1-naphthyl}-2-{4-[(l-methylpiperidin-4-yl)methyl]piperazin-1-yl}acetamide]	71%	66%
CNc1nccc(-c2cc(NC(=O)CN3CCC(N4CCN(C)CC4)CC3)c3cc(OC)ccc3c2)n1 [Compound 45, N-{7-methoxy-3-[2-(methylamino)pyrimidin-4-yl]-1-naphthyl}-2-[4-(4-methylpiperazin-1-yl)piperidin-1-yl]acetamide]	99%	98%
CNc1nccc(-c2cc(NC(=O)CN3CCN(CCc4cccs4)CC3)c3cc(OC)ccc3c2)n1 [Compound 46, N-{7-methoxy-3-[2-(methylamino)pyrimidin-4-yl]-1-naphthyl}-2-{4-[2-(2-thienyl)ethyl]piperazin-1-yl}acetamide]	99%	99%
CNc1nccc(-c2cc(NC(=O)CNCC(C)(C)CO)c3cc(OC)ccc3c2)n1 [Compound 50, N~2~-(3-hydroxy-2,2-dimethylpropyl)-N-{7-methoxy-3-[2-(methylamino)pyrimidin-4-yl]-1-naphthyl}glycinamide]	94%	97%
CCCCN(C)CCNCC(=O)Nc1cc(-c2ccnc(NC)n2)cc2ccc(OC)cc12 [Compound 51, N~2~-{2-[butyl(methyl)amino]ethyl}-N-{7-methoxy-3-[2-(methylamino)pyrimidin-4-yl]-1-naphthyl}glycinamide]	93%	98%
CNc1nccc(-c2cc(NC(=O)CN3CCN(CC(=O)N(C)C)CC3)c3cc(OC)ccc3c2)n1 [Compound 52, 2-{4-[2-({7-methoxy-3-[2-(methylamino)pyrimidin-4-yl]-1-naphthyl}amino)-2-oxoethyl]piperazin-1-yl}-N,N-dimethylacetamide]	96%	99%
CNc1nccc(-c2cc(NC(=O)CNCCOC(C)C)c3cc(OC)ccc3c2)n1 [Compound 53, N~2~-(2-isopropoxyethyl)-N-{7-methoxy-3-[2-(methylamino)pyrimidin-4-yl]-1-naphthyl}glycinamide]	81%	92%
CNc1nccc(-c2cc(NC(=O)CNc3cccnc3)c3cc(OC)ccc3c2)n1 [Compound 54, N-{7-methoxy-3-[2-(methylamino)pyrimidin-4-yl]-1-naphthyl}-N~2~-pyridin-3-ylglycinamide]	65%	75%
CNc1nccc(-c2cc(NC(=O)CNc3nc4ccccc4n3C)c3cc(OC)ccc3c2)n1 [Compound 58, N-{7-methoxy-3-[2-(methylamino)pyrimidin-4-yl]-1-naphthyl}-N~2~-(1-methyl-1H-benzimidazol-2-yl)glycinamide]	99%	98%
CNc1nccc(-c2cc(NC(=O)CN3CCN(CCOC)CC3)c3cc(OC)ccc3c2)n1 [Compound 59, 2-[4-(2-methoxyethyl)piperazin-1-yl]-N-{7-methoxy-3-[2-(methylamino)pyrimidin-4-yl]-1-naphthyl}acetamide]	98%	97%
CNc1nccc(-c2cc(NC(=O)CN3CCN(CCN4CCCC4)CC3)c3cc(OC)ccc3c2)n1 [Compound 64, N-{7-methoxy-3-[2-(methylamino)pyrimidin-4-yl]-1-naphthyl}-2-[4-(2-pyrrolidin-1-ylethyl)piperazin-1-yl]acetamide]	71%	89%
CNc1nccc(-c2cc(NC(=O)CN3CCN(CCCN(C)C)CC3)c3cc(OC)ccc3c2)n1 [Compound 65, 2-{4-[3-(dimethylamino)propyl]piperazin-1-yl}-N-{7-methoxy-3-[2-(methylamino)pyrimidin-4-yl]-1-naphthyl}acetamide]	98%	98%
CNc1nccc(-c2cc(NC(=O)CN3CCN(CCN(C)C)CC3)c3cc(OC)ccc3c2)n1 [Compound 67, 2-{4-[2-(dimethylamino)ethyl]piperazin-1-yl}-N-{7-methoxy-3-[2-(methylamino)pyrimidin-4-yl]-1-naphthyl}acetamide]	53%	31%
CCN(CC)CCCCNCC(=O)Nc1cc(-c2ccnc(NC)n2)cc2ccc(OC)cc12 [Compound 73, N~2~-[4-(diethylamino)butyl]-N-{7-methoxy-3-[2-(methylamino)pyrimidin-4-yl]-1-naphthyl}glycinamide]	98%	98%
CNc1nccc(-c2cc(NC(=O)CN3CCN(c4nccc(C(F)(F)F)n4)CC3)c3cc(OC)ccc3c2)n1 [Compound 75, N-{7-methoxy-3-[2-(methylamino)pyrimidin-4-yl]-1-naphthyl}-2-{4-[4-(trifluoromethyl)pyrimidin-2-yl]piperazin-1-yl}acetamide]	98%	97%
CNc1nccc(-c2cc(NC(=O)CNCCN3CCOCC3)c3cc(OC)ccc3c2)n1 [Compound 78, N-{7-methoxy-3-[2-(methylamino)pyrimidin-4-yl]-1-naphthyl}-N~2~-(2-morpholin-4-ylethyl)glycinamide]	48%	55%
CNc1nccc(-c2cc(NC(=O)CN3CCN(CC(=O)N(C)c4ccccc4)CC3)c3cc(OC)ccc3c2)n1 [Compound 79, 2-{4-[2-({7-methoxy-3-[2-(methylamino)pyrimidin-4-yl]-1-naphthyl}amino)-2-oxoethyl]piperazin-1-yl}-N-methyl-N-phenylacetamide]	99%	98%
CNc1nccc(-c2cc(NC(=O)CN3CCN(CCn4cccc4)CC3)c3cc(OC)ccc3c2)n1 [Compound 82, N-{7-methoxy-3-[2-(methylamino)pyrimidin-4-yl]-1-naphthyl}-2-{4-[2-(1H-pyrrol-1-yl)ethyl]piperazin-1-yl}acetamide]	80%	96%
CNc1nccc(-c2cc(NC(=O)CN3CCN(C4CCN(C)CC4)CC3)c3cc(OC)ccc3c2)n1 [Compound 83, N-{7-methoxy-3-[2-(methylamino)pyrimidin-4-yl]-1-naphthyl}-2-[4-(1-methylpiperidin-4-yl)piperazin-1-yl]acetamide]	99%	99%
CNc1nccc(-c2cc(NC(=O)CNCCOC)c3cc(OC)ccc3c2)n1 [Compound 85, N~2~-(2-methoxyethyl)-N-{7-methoxy-3-[2-(methylamino)pyrimidin-4-yl]-1-naphthyl}glycinamide]	90%	98%
COc1ccc2cc(-c3ccnc(NCCN(C)C)n3)cc(NC(=O)OC(C)(C)C)c2c1 [Compound 86, tert-butyl [3-(2-{[2-(dimethylamino)ethyl]amino}pyrimidin-4-yl)-7-methoxy-1-naphthyl]carbamate]	67%	31%
COc1ccc(CCNc2nccc(-c3cc(NC(=O)OC(C)(C)C)c4cc(OC)ccc4c3)n2)cc1 [Compound 88, tert-butyl [7-methoxy-3-(2-{[2-(4-methoxyphenyl)ethyl]amino}pyrimidin-4-yl)-1-naphthyl]carbamate]	64%	90%
CCN1CCCC(Nc2nccc(-c3cc(NC(=O)OC(C)(C)C)c4cc(OC)ccc4c3)n2)C1 (stereo not shown) [Compound 91, tert-butyl (3-{2-[(1-ethylpiperidin-3-yl)amino]pyrimidin-4-yl}-7-methoxy-1-naphthyl)carbamate]	85%	97%
COc1ccc2cc(-c3ccnc(NCCc4ccccc4OC)n3)cc(NC(=O)OC(C)(C)C)c2c1 [Compound 92, tert-butyl [7-methoxy-3-(2-{[2-(2-methoxyphenyl)ethyl]amino}pyrimidin-4-yl)-1-naphthyl]carbamate]	99%	98%
COc1ccc2cc(-c3ccnc(NCc4cncn4C)n3)cc(NC(=O)OC(C)(C)C)c2c1 [Compound 93, tert-butyl [7-methoxy-3-(2-{[(1-methyl-1H-imidazol-5-yl)methyl]amino}pyrimidin-4-yl)-1-naphthyl]carbamate]	72%	96%
COc1ccc2cc(-c3ccnc(NCCc4cccc(OC)c4OC)n3)cc(NC(=O)OC(C)(C)C)c2c1 [Compound 94, tert-butyl [3-(2-{[2-(2,3-dimethoxyphenyl)ethyl]amino}pyrimidin-4-yl)-7-methoxy-1-naphthyl]carbamate]	35%	37%
